From ChEMBL document CHEMBL1201862, “PubChem BioAssay data set” (2004)
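Five compound concentrations were applied to cells in 96-well plates for 48 hours; endpoints were derived by simple linear interpolation of the resulting dose-response curve. GI50: concentration for 50% inhibition of growth.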 The source made the active and inactive calls. Rule as the data show it: active = GI50 up to about 1.1 µM and inactive = higher.

Key:
Experiment in all cases: NCI tumour cell line growth inhibition, 48 h
[1] = tested on: HCT-15
[2] = tested on: ACHN
[3] = tested on: SK-OV-3
[4] = tested on: UACC-257
[5] = tested on: M14
[6] = tested on: A549
[7] = tested on: SNB-75
[8] = tested on: NCI-H522
[9] = tested on: KM12
[10] = tested on: SK-MEL-2
[11] = tested on: HT-29
[12] = tested on: EKVX
[13] = tested on: Malme-3M
[14] = tested on: RPMI-8226
[15] = tested on: NCI-H460
[16] = tested on: SF-539
[17] = tested on: U-251
[18] = tested on: NCI-H226

SMILES | GI50 [1] [µM] | GI50 [2] | GI50 [3] | GI50 [4] | GI50 [5] | GI50 [6] | GI50 [7] | GI50 [8] | GI50 [9] | GI50 [10] | GI50 [11] | GI50 [12] | GI50 [13] | GI50 [14] | GI50 [15] | GI50 [16] | GI50 [17] | GI50 [18]
O=C(O)c1c[nH]c2c(=O)[nH]cnc12 | > 100 | > 100 µM (inactive) | > 100 µM (inactive) | > 100 µM (inactive) | > 100 µM (inactive) | > 100 µM (inactive) | > 100 µM (inactive) | > 100 µM (inactive) | > 100 µM (inactive) | > 100 µM (inactive) | > 100 µM (inactive) | > 100 µM (inactive) | > 100 µM (inactive) | > 100 µM (inactive) | – | – | – | –
O=C(Nc1c(Cl)cc([N+](=O)[O-])cc1Cl)/C(=N\Nc1cccc(Cl)c1)c1c(O)c2ccccc2oc1=O | – | 49.2 µM (inactive) | > 100 µM (inactive) | > 100 µM (inactive) | – | > 100 µM (inactive) | – | 39.9 µM (inactive) | > 100 µM (inactive) | > 100 µM (inactive) | > 100 µM (inactive) | 26.4 µM (inactive) | > 100 µM (inactive) | 50 µM (inactive) | > 100 µM (inactive) | > 100 µM (inactive) | – | –
N#CC(/C(CCCC(=O)Nc1cccc([N+](=O)[O-])c1)=N/NC(=O)c1cc2ccccc2cc1O)c1ccccc1 (stereo not drawn) | 17.9 | 34.3 µM (inactive) | 61.8 µM (inactive) | 24.4 µM (inactive) | 16.3 µM (inactive) | 47.3 µM (inactive) | > 100 µM (inactive) | 23.1 µM (inactive) | 62.2 µM (inactive) | – | 36.4 µM (inactive) | 23.2 µM (inactive) | 67.1 µM (inactive) | 35.4 µM (inactive) | 21.2 µM (inactive) | 27.4 µM (inactive) | 34.6 µM (inactive) | > 100 µM (inactive)
CCOC(=O)CN(Cn1cncn1)Cn1cncn1 | 22 | 36.6 µM (inactive) | > 100 µM (inactive) | 17.6 µM (inactive) | > 10 µM (inactive) | 40.6 µM (inactive) | 20.6 µM (inactive) | – | 20.2 µM (inactive) | 38.2 µM (inactive) | 34.6 µM (inactive) | 43.8 µM (inactive) | 52 µM (inactive) | 55.2 µM (inactive) | 24.9 µM (inactive) | – | 17.9 µM (inactive) | 28.1 µM (inactive)
C#C[C@@]1(O)CCCC2=CC(=O)C[C@]21C | > 100 | > 100 µM (inactive) | > 100 µM (inactive) | > 100 µM (inactive) | > 100 µM (inactive) | > 100 µM (inactive) | – | > 100 µM (inactive) | > 100 µM (inactive) | > 100 µM (inactive) | > 100 µM (inactive) | > 100 µM (inactive) | > 100 µM (inactive) | > 100 µM (inactive) | > 100 µM (inactive) | > 100 µM (inactive) | > 100 µM (inactive) | > 100 µM (inactive)
COC(=O)N/N=C/c1oc(-c2ccccc2)c(-c2ccccc2)c1[N+](=O)[O-] | > 100 | > 100 µM (inactive) | > 100 µM (inactive) | > 100 µM (inactive) | > 100 µM (inactive) | > 100 µM (inactive) | > 100 µM (inactive) | > 100 µM (inactive) | > 100 µM (inactive) | – | > 100 µM (inactive) | – | > 100 µM (inactive) | > 100 µM (inactive) | > 100 µM (inactive) | > 100 µM (inactive) | > 100 µM (inactive) | > 100 µM (inactive)
CCCC(C)NC1=C(NC(C)=O)C(=O)c2ccccc2C1=O (stereo not drawn) | > 100 | > 100 µM (inactive) | > 100 µM (inactive) | > 100 µM (inactive) | > 100 µM (inactive) | > 100 µM (inactive) | > 100 µM (inactive) | 64.7 µM (inactive) | > 100 µM (inactive) | > 100 µM (inactive) | > 100 µM (inactive) | > 100 µM (inactive) | 36.1 µM (inactive) | – | > 100 µM (inactive) | > 100 µM (inactive) | > 100 µM (inactive) | > 100 µM (inactive)
COC(=O)C[S+]([O-])c1ccccc1 (stereo not drawn) | 28.7 | 33.7 µM (inactive) | 60.7 µM (inactive) | 60.4 µM (inactive) | 37.3 µM (inactive) | 26.8 µM (inactive) | > 10 µM (inactive) | 13.8 µM (inactive) | 28.3 µM (inactive) | 35.6 µM (inactive) | 36.6 µM (inactive) | 50.7 µM (inactive) | > 100 µM (inactive) | 21.9 µM (inactive) | 59.8 µM (inactive) | 20.9 µM (inactive) | 24.4 µM (inactive) | –
CC1=C(CO)C(=O)O[C@@H]([C@@H](C)[C@H]2CC[C@H]3[C@@H]4C[C@H]5O[C@]56[C@@H](O)C=CC(=O)[C@]6(C)[C@H]4CC[C@]23C)C1 [WITHAFERIN A] | 0.446 | 1.7 µM (inactive) | – | 1.59 µM (inactive) | 0.423 µM (active) | 3.31 µM (inactive) | 4.11 µM (inactive) | 0.0335 µM (active) | 3.72 µM (inactive) | 0.601 µM (active) | 0.417 µM (active) | – | 0.243 µM (active) | 0.247 µM (active) | 2.91 µM (inactive) | 1.34 µM (inactive) | 0.247 µM (active) | 1.3 µM (inactive)
